Measurements taken from patent US12251398B2, “Topical compositions designated to maintain and/or restore the integrity of the mucosa and damaged epidermis” (RICERFARMA S.R.L., priority 2020, dated 2025).

Experiments:
hyaluronidases = settings: known, in words; cited from earlier work
[1] = system: Hyaluronidase from bovine testes I-S Type; assay: Enzymatic degradation of hyaluronic acid by hyaluronidase, Mw followed by HP-SEC-TDA; type: biochemical; settings: in words
Source text: The molecular weight distribution of degraded acids will be analyzed by using High Performance Size Exclusion Chromatography coupled with a Triple Detector Array (HP-SEC-TDA).
The following is the list of reagents and materials used: • Hyaluronic acid (Mw 1.348.000 Da), Contipro a.s. (Czech Republic) • Hyaluronic acid (Mw 1.450.000 Da), Lehvoss Italia S.r.l. (Italy) • Glycerophosphocholine • Ascorbyl Palmitate • Citric acid monohydrate, Sigma Aldrich • Deionized H2O obtained with a Culligan apparatus; • Hyaluronidase from bovine testes I-S Type. 400-1000 units/mg. Sigma Aldrich; • NaNO3. Sigma Aldrich; • NaN3. Sigma Aldrich; • Snap-it vial 0.3 ml, 11.6×32 mm. Thermo Scientific; • Snap-it cap 11 mm, Thermo Scientific; • Sodium citrate diidrate, Sigma Aldrich. Samples Prepared and Tested:
10 ml of solution were hydrolyzed.
Buffer Solution: Solution 1 has been added to Solution 2 and stirred at room temperature for 30′. Resulting pH=6.06.
Hyaluronidase: about 10 mg of hyaluronidase were dissolved in about 1 ml of H2O and stirred at room temperature for 3 hours (10 mg/ml).
The solutions were stirred at 38° C. in an oil bath for about 1 h before adding 67 μl of the enzyme solution (HA/Hyaluronidase 15/1 w/w).
Different aliquots of solutions were collected at different timing (1 h; 2 h; 3 h; 4 h; 5 h; 6 h, 24 h) and heated at 100° C. for 5′ using a thermoshaker to denature the enzyme. The solutions were filtrated to remove the precipitated enzyme (LLG-Syringe filter CA pore size 0.20 μm. Ø 13 mm). Before HP-SEC-TDA analyses, the solutions were diluted to 0.5 mg/ml of HA with mobile phase.
Two equivalent HP-SEC-TDA instruments were used: • 1) Viscotek system model TDA305. equipped with Refractive Index, Right and Low Angle Light Scattering and Viscometers detectors, was used under the following conditions: • Columns: 2 columns TSKGMPWXL 13 μm. […]

[2] = as disclosed in WO93/19730; cited from earlier work

Row | Structure (SMILES) | inhibitory activity against hyaluronidases (hyaluronidases) | effect on the enzymatic kinetics of HA degradation [1] | effect on the enzymatic kinetics of HA degradation ([1]; listed as ascorbyl palmitate) | systemic toxicity [2] | topical tolerability [2]
1 | CCCCCCCCCCCCCCCC(=O)OC[C@H](O)[C@H]1OC(=O)C(O)=C1O [Ascorbyl Palmitate, Ascorbyl palmitate] | significant inhibitory activity | significantly effective in slowing down the enzymatic kinetics | significantly effective in slowing enzymatic kinetics |  | 
2 | C[N+](C)(C)CCOP(=O)([O-])OC[C@H](O)CO [Glycerophosphocholine] |  | does not contribute in any way to the enzymatic kinetics |  | practically devoid of systemic toxicity | marked topical tolerability
